Literature values as cited in patent publication US12176074B2, “Compound function prediction method based on neural network and connectivity map algorithm” (BEIJING GIGACEUTICALS TECH. CO. LTD, priority 2021, dated 2024).

System: novel coronavirus (SARS-CoV-2)
Settings: specific data in Chinese patent application 202010309486.2; read-out: EC50, effect for fighting against the novel coronavirus

Q: With `O=C1C[C@@H](c2ccc(O[C@@H]3O[C@H](CO)[C@@H](O)[C@H](O)[C@H]3O)cc2)Oc2cc(O)ccc21` [liquiritin] as the compound, how does the EC50 read?
A: 2390 nM
